Assay results published in the supplement of paper PMC10307832.

Tests used:
Test in all cases: relative viability (nuclei count vs DMSO), 5 days (fraction); higher = more cells survive
Neratinib + Luminespib = compound: CCOc1cc2ncc(C#N)c(Nc3ccc(OCc4ccccn4)c(Cl)c3)c2cc1NC(=O)/C=C/CN(C)C [Neratinib] + CCNC(=O)c1noc(-c2cc(C(C)C)c(O)cc2O)c1-c1ccc(CN2CCOCC2)cc1 [Luminespib] (partner 0.01 µM)
Summary of the method: (§1)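 Relative viability is defined as nuclei in treated wells over nuclei in vehicle wells. Duplicate plates were run and medians reported. Lung cancer cell lines in 1536-well plates were dosed by pin tool one day after seeding, with one drug or with a fixed anchor-drug dose plus five library-drug doses (not always all listed) in √10 steps, and nuclei were counted after 5 days.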

Neratinib + OSI-027 = compound: CCOc1cc2ncc(C#N)c(Nc3ccc(OCc4ccccn4)c(Cl)c3)c2cc1NC(=O)/C=C/CN(C)C [Neratinib] + COc1cccc2cc(-c3nc([C@H]4CC[C@H](C(=O)O)CC4)n4ncnc(N)c34)[nH]c12 [OSI-027] (partner 0.5 µM)
Summary of the method: as §1

Neratinib + Lapatinib = compound: CCOc1cc2ncc(C#N)c(Nc3ccc(OCc4ccccn4)c(Cl)c3)c2cc1NC(=O)/C=C/CN(C)C [Neratinib] + CS(=O)(=O)CCNCc1ccc(-c2ccc3ncnc(Nc4ccc(OCc5cccc(F)c5)c(Cl)c4)c3c2)o1 [Lapatinib] (partner 2 µM)
Summary of the method: as §1

Neratinib + Linsitinib = compound: CCOc1cc2ncc(C#N)c(Nc3ccc(OCc4ccccn4)c(Cl)c3)c2cc1NC(=O)/C=C/CN(C)C [Neratinib] + C[C@]1(O)C[C@@H](c2nc(-c3ccc4ccc(-c5ccccc5)nc4c3)c3c(N)nccn32)C1 [Linsitinib] (partner 1 µM)
Summary of the method: as §1

Row | Cell Line | relative viability (Neratinib + Luminespib; first compound 0.01 µM) | relative viability (Neratinib + Luminespib; first compound 0.03162 µM) | relative viability (Neratinib + Luminespib; first compound 0.1 µM) | relative viability (Neratinib + Luminespib; first compound 0.3162 µM) | relative viability (Neratinib + Luminespib; first compound 1 µM) | relative viability (Neratinib + OSI-027; first compound 0.01 µM) | relative viability (Neratinib + OSI-027; first compound 0.03162 µM) | relative viability (Neratinib + OSI-027; first compound 0.1 µM) | relative viability (Neratinib + OSI-027; first compound 0.3162 µM) | relative viability (Neratinib + OSI-027; first compound 1 µM) | relative viability (Neratinib + Lapatinib; first compound 0.01 µM) | relative viability (Neratinib + Lapatinib; first compound 0.03162 µM) | relative viability (Neratinib + Lapatinib; first compound 0.1 µM) | relative viability (Neratinib + Lapatinib; first compound 0.3162 µM) | relative viability (Neratinib + Lapatinib; first compound 1 µM) | relative viability (Neratinib + Linsitinib; first compound 0.01 µM) | relative viability (Neratinib + Linsitinib; first compound 0.03162 µM) | relative viability (Neratinib + Linsitinib; first compound 0.3162 µM) | relative viability (Neratinib + Linsitinib; first compound 1 µM) | relative viability (Neratinib + Linsitinib; first compound 0.1 µM)
1 | NCI-H1437 | 1.21 | 1.08 | 1 | 1.11 | 1.09 | 0.851 | 0.886 | 0.812 | 0.763 | 0.759 | 0.911 | 0.881 | 0.771 | 0.721 | 0.703 | 1.27 | 1.1 | 0.793 | 0.723 | 
2 | NCI-H460 | 0.0344 | 0.0284 | 0.0244 | 0.0268 | 0.0188 | 0.61 | 0.891 | 0.596 | 0.419 | 0.0301 | 1.15 | 1.38 |  | 0.921 | 0.557 | 0.918 | 1.1 | 0.612 | 0.222 | 
3 | NCI-H1993 | 0.717 | 0.83 | 0.719 | 0.599 | 0.511 | 0.387 | 0.576 | 0.655 | 0.643 | 0.674 | 0.88 | 0.795 | 0.79 | 0.845 | 0.803 | 0.833 | 0.659 | 0.648 | 0.838 | 0.71
4 | BEN | 0.605 | 0.367 | 0.378 | 0.307 | 0.243 | 0.286 | 0.304 | 0.275 | 0.283 | 0.286 | 0.739 | 1.12 | 0.464 | 0.59 | 0.565 | 1.03 | 0.961 | 0.744 | 0.544 | 0.814
5 | LC-2-ad | 1.11 | 1.1 | 1.04 | 0.87 | 0.465 | 0.831 | 0.877 | 0.749 | 0.518 | 0.383 | 0.993 | 0.974 | 0.783 | 1.06 | 0.978 | 0.87 | 0.842 | 0.673 | 0.321 | 0.785
6 | COR-L23 |  | 0.621 | 0.598 | 0.606 | 0.257 | 0.863 | 0.862 | 0.753 | 0.68 | 0.285 | 1.07 | 1.14 | 0.781 | 0.882 | 0.598 | 1.01 | 1.08 | 0.835 | 0.318 | 0.879
7 | UMC-11 | 1.15 | 1.1 | 0.964 | 0.903 | 0.763 | 0.487 | 0.487 | 0.415 | 0.414 | 0.308 | 1.03 | 1.11 | 0.604 | 0.841 | 0.745 | 0.925 | 1.07 | 0.921 | 0.684 | 0.655
8 | NCI-H1915 | 0.845 | 0.818 | 0.422 | 0.792 | 0.462 | 0.697 | 0.67 | 0.294 | 0.595 | 0.424 | 1.05 | 1.05 | 0.898 | 0.832 | 0.964 | 1.11 | 1.13 | 1.09 | 0.874 | 
9 | NCI-H661 | 0.966 | 0.905 | 0.593 | 0.587 | 0.372 | 0.688 | 0.615 | 0.54 | 0.325 | 0.24 | 0.563 | 0.45 | 0.431 | 0.427 | 0.312 | 0.621 | 0.536 | 0.299 | 0.197 | 0.499
10 | NCI-H2023 | 0.999 | 0.871 | 0.579 | 0.709 | 0.579 | 0.432 | 0.493 | 0.31 | 0.331 | 0.179 | 0.888 | 0.804 | 0.758 | 0.878 | 0.723 | 0.658 | 0.675 | 0.446 | 0.303 | 0.465
11 | NCI-H2228 | 0.145 | 0.138 | 0.14 | 0.12 | 0.114 | 0.536 |  | 0.662 | 0.526 | 0.142 | 1.03 | 1.26 | 1.01 | 0.924 | 0.259 | 0.88 | 0.526 | 0.582 | 0.421 | 0.388
12 | LXF-289 | 0.726 | 0.805 |  | 0.695 | 0.453 | 0.876 | 0.875 | 0.777 | 0.759 | 0.542 |  | 0.964 | 0.809 | 0.924 | 0.937 | 0.998 | 1.01 | 0.98 | 0.789 | 0.913
13 | NCI-H1563 | 0.57 | 0.498 | 0.488 | 0.503 | 0.484 | 0.806 | 0.725 | 0.732 | 0.67 | 0.575 | 0.921 | 0.975 | 0.889 | 1.57 | 0.843 | 1.22 | 1.24 | 1.1 | 0.998 | 0.993
14 | HCC-44 | 1.29 | 1.23 | 0.989 | 1.07 | 0.524 | 0.723 | 0.655 | 0.648 | 0.505 | 0.548 | 1.04 | 1.15 | 0.792 | 0.963 | 1.07 | 0.724 | 0.697 |  | 0.691 | 0.641
15 | SK-LU-1 | 0.187 | 0.213 | 0.192 | 0.178 | 0.176 | 0.373 | 0.384 | 0.305 | 0.238 | 0.135 | 0.921 | 0.904 | 0.809 | 0.74 | 0.507 | 1.15 | 1.31 | 0.629 | 0.401 | 0.876
16 | HOP-62 | 0.917 | 0.974 | 0.893 | 0.884 | 0.927 | 0.849 | 0.914 | 0.799 | 0.776 | 0.775 |  |  | 0.879 | 0.825 | 1.21 | 0.864 | 1.03 | 1.09 | 1.07 | 1.06
17 | NCI-H358 | 0.301 | 0.518 | 0.279 | 0.108 | 0.12 | 0.65 | 0.514 | 0.275 | 0.117 | 0.107 | 0.502 | 0.47 | 0.42 | 0.405 | 0.237 |  |  | 0.26 | 0.205 | 0.264
